# Laboratory results published in US9133115B2 (ACHILLION PHARMACEUTICALS, INC., priority 2008, dated 2015).
# System: HCV replicon
# Assay: HCV replicon replication assay (NPT ELISA) in Huh-7 replicon-containing cells
# Format: cell-based
# Settings: Hepatitis C virus, 72 h; HCV replicon in Huh-7 cells, three days incubation; read-out: EC50
# Procedure, shortened: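 Replication was scored by capture ELISA of neomycin phosphotransferase, whose level tracks replicon replication, after graded compound treatment. The cells were Huh-7 harbouring an HCV-IRES/neo/EMCV-IRES/NS3–NS5B/3′-NTR replicon, plated at 6000-7500 cells/well and dosed 24 h later at 60-70% confluence; interferon alpha was the positive control.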
row,SMILES,EC50 [nM]
1,"C=C[C@@H]1C[C@]1(NC(=O)[C@@H]1C[C@@H](Oc2cc(-c3ccccn3)nc3c4c(ccc23)OCC4)CN1C(=O)[C@@H](CC(=O)N1CCCCC1)C(C)(C)C)C(=O)NS(=O)(=O)C1CC1 [Compound 152, (2S,4R)-1-((S)-2-tert-butyl-4-oxo-4-(piperidin-1-yl)butanoyl)-N-((1R,2S)-1-(cyclo-propylsulfonyl-carbamoyl)-2-vinylcyclopropyl)-4-(2-(pyridin-2-yl)-8,9-dihydrofuro[2,3-h]quinolin-4-yloxy)pyrrolidine-2-carboxamide]",< 1000
2,"C=C[C@@H]1C[C@]1(NC(=O)[C@@H]1C[C@@H](Oc2cc(-c3ccccc3)nc3cc(OC)ccc23)CN1C(=O)[C@@H](CC(=O)N1CC2CCC1C2)C(C)(C)C)C(=O)NS(=O)(=O)C1CC1 (stereo partly drawn) [Compound 79, (2S,4R)-1-((2S)-2-(2-(2-azabi-cyclo[2.2.1]heptan-2-yl)-2-oxoethyl)-3,3-dimethylbutanoyl)-N-((1R,2S)-1-(cyclopropyl-sulfonylcarbamoyl)-2-vinylcyclopropyl)-4-(7-methoxy-2-phenylquinolin-4-yloxy)pyrrolidine-2-carboxamide]",< 1000
3,"C=C[C@@H]1C[C@]1(NC(=O)[C@@H]1C[C@@H](Oc2cc(-c3ccccc3)nc3cc(OC)ccc23)CN1C(=O)[C@@H](CC(=O)N1CCC(N(C)C(=O)OC(C)(C)C)C1)C(C)(C)C)C(=O)NS(=O)(=O)C1CC1 (stereo partly drawn) [Compound 161, tert-butyl 1-((S)-3-((2S,4R)-2-((1R,2S)-1-(cyclopropyl-sulfonylcarbamoyl)-2-vinylcyclopropyl-carbamoyl)-4-(7-methoxy-2-phenylquinolin-4-yloxy)pyrrolidine-1-carbonyl)-4,4-dimethyl-pentanoyl)pyrrolidin-3-yl(methyl)carbamate]",< 1000
4,"C=C[C@@H]1C[C@]1(NC(=O)[C@@H]1C[C@@H](Oc2cc(-c3ccccc3)nc3c4c(ccc23)CCC4)CN1C(=O)[C@@H](CC(=O)N1CCCCC1)C(C)(C)C)C(=O)NS(=O)(=O)C1CC1 [Compound 235, (2S,4R)-l-((S)-2-tert-butyl-4-oxo-4-(piperidin-l-yl)butanoyl)-N-((2S)-l-(cyclopropyl-sulfonylcarbamoyl)-2-vinylcyclopropyl)-4-(2-phenyl-8,9-dihydro-7H-cyclo-penta[h]quinolin-4-yloxy)pyrrolidine-2-carboxamide]",< 1000
5,"C=C[C@@H]1C[C@]1(NC(=O)[C@@H]1C[C@@H](NC(=O)n2c3ccccc3c3ccccc32)CN1C(=O)[C@@H](CC(=O)N1CC2CCC1C2)C(C)(C)C)C(=O)NS(=O)(=O)C1CC1 (stereo partly drawn) [Compound 198, N-((3R,5S)-1-((2S)-2-(2-(2-aza-bicyclo[2.2.1]heptan-2-yl)-2-oxoethyl)-3,3-dimethylbutanoyl)-5-((1R)-1-(cyclo-propylsulfonyl-carbamoyl)-2-vinylcyclopropyl-carbamoyl)pyrrolidin-3-yl)-9H-carbazole-9-carboxamide]",< 1000
6,"C=C[C@@H]1C[C@]1(NC(=O)[C@@H]1C[C@@H](Oc2cc(-c3ccccc3)nc3cc(OC)ccc23)CN1C(=O)[C@@H](CC(=O)N1CCC(F)(F)CC1)C(C)(C)C)C(=O)NS(=O)(=O)C1CC1 [Compound 119, (2S,4R)-1-((S)-2-tert-butyl-4-(4,4-difluoropiperidin-1-yl)-4-oxobutanoyl)-N-((1R,2S)-1-(cyclopropylsulfonyl-carbamoyl)-2-vinylcyclopropyl)-4-(7-methoxy-2-phenylquinolin-4-yloxy)pyrrolidine-2-carboxamide]",< 1000
7,"C=C[C@@H]1C[C@]1(NC(=O)[C@@H]1C[C@@H](Oc2cc(-c3ccccn3)nc3c4c(ccc23)CCC4)CN1C(=O)[C@@H](CC(=O)N1CCCC(F)(F)C1)C(C)(C)C)C(=O)NS(=O)(=O)C1CC1 [Compound 236, (2S,4R)-1-((S)-2-tert-butyl-4-(3,3-difluoropiperidin-1-yl)-4-oxobutanoyl)-N-((2S)-1-(cyclopropyl-sulfonylcarbamoyl)-2-vinylcyclopropyl)-4-(2-(pyridin-2-yl)-8,9-dihydro-7H-cyclopenta[h]quino-lin-4-yloxy)pyrrolidine-2-carboxamide]",< 1000
8,"C=C[C@@H]1C[C@]1(NC(=O)[C@@H]1C[C@@H](NC(=O)n2c3ccccc3c3ccccc32)CN1C(=O)[C@@H](CC(=O)N1CCC(F)CC1)C(C)(C)C)C(=O)NS(=O)(=O)C1CC1 [Compound 189, N-((3R,5S)-1-((S)-2-tert-butyl-4-(4-fluoropiperidin-1-yl)-4-oxobutanoyl)-5-((1R,2S)-1-(cyclo-propylsulfonyl-carbamoyl)-2-vinylcyclopropyl-carbamoyl)pyrrolidin-3-yl)-9H-carbazole-9-carboxamide]",< 1000
9,"C=C[C@@H]1C[C@]1(NC(=O)[C@@H]1C[C@@H](Oc2cc(-c3csc(NC(C)C)n3)nc3cc(OC)ccc23)CN1C(=O)[C@@H](CC(=O)N1CCCCC1)C(C)(C)C)C(=O)NS(=O)(=O)C1CC1 [Compound 96, (2S,4R)-1-((S)-2-tert-butyl-4-oxo-4-(piperidin-1-yl)butanoyl)-N-((1R,2S)-1-(cyclopropylsulfonyl-carbamoyl)-2-vinylcyclopropyl)-4-(2-(2-(isopropyl-amino)thiazol-4-yl)-7-methoxyquinolin-4-yloxy)pyrrolidine-2-carboxamide]",< 1000
10,"C=C[C@@H]1C[C@]1(NC(=O)[C@@H]1C[C@@H](Oc2cc(-c3ccccc3)nc3cc(OC)ccc23)CN1C(=O)[C@@H](CC(=O)N1CCCCC1)C(C)(C)C)C(=O)NS(=O)(=O)c1cccs1 [Compound 72, (2S,4R)-1-((S)-2-tert-butyl-4-oxo-4-(piperidin-1-yl)butanoyl)-4-(7-methoxy-2-phenylquinolin-4-yloxy)-N-((1R,2S)-1-(thiophen-2-ylsulfonylcarbamoyl)-2-vinylcyclopropyl)pyr-rolidine-2-carboxamide]",< 1000
11,"C=C[C@H]1C[C@]1(NC(=O)[C@@H]1C[C@@H](Oc2cc(-c3ccccc3)nc3cc(OC)ccc23)CN1C(=O)[C@@H](CC(=O)N1CCCCC1)C(C)C)C(=O)NS(=O)(=O)C1CC1 [Compound 58, (2S,4R)-N-((1R,2R)-1-(cyclopropyl-sulfonylcarbamoyl)-2-vinylcyclopropyl)-1-((S)-2-isopropyl-4-oxo-4-(piperidin-1-yl)butanoyl)-4-(7-methoxy-2-phenylquinolin-4-yloxy)pyrrolidine-2-carboxamide]",< 1000
12,"C=C[C@@H]1C[C@]1(NC(=O)[C@@H]1C[C@@H](Oc2cc(-c3ccccc3)nc3cc(OC)ccc23)CN1C(=O)[C@@H](CC(=O)N1CCC2CCCCC2C1)C(C)(C)C)C(=O)NS(=O)(=O)C1CC1 (stereo partly drawn) [Compound 74, (2S,4R)-1-((2S)-2-tert-butyl-4-(octa-hydroisoquinolin-2(1H)-yl)-4-oxobutanoyl)-N-((1R,2S)-1-(cyclo-propylsulfonyl-carbamoyl)-2-vinylcycloprop-yl)-4-(7-methoxy-2-phenylquinolin-4-yloxy)pyrrolidine-2-carboxamide]",< 1000
13,"C=C[C@H]1C[C@]1(NC(=O)[C@@H]1C[C@@H](Oc2cc(-c3ccccc3)nc3cc(OC)ccc23)CN1C(=O)[C@@H](CC(=O)N1CCCCC1)CC1CCCC1)C(=O)NS(=O)(=O)C1CC1 [Compound 57, (2S,4R)-1-((R)-2-(cyclopentylmethyl)-4-oxo-4-(piperidin-1-yl)butanoyl)-N-((1R,2R)-1-(cyclopropyl-sulfonylcarbamoyl)-2-vinylcyclopropyl)-4-(7-methoxy-2-phenylquinolin-4-yloxy)pyrrolidine-2-carboxamide]",< 1000
